Legend:
[1] = tested on: COX-2 and 5-LOX expression in HT29 cells; assay: COX-2 and 5-LOX expression in HT29 cells; assay type: cell-based, human; conditions: Figure 2B
[2] = tested on: HT29, HCA-7 and Apc10.1 cells; assay: Cell growth assays, IC50 ranges over the three cell lines; assay type: cell-based; conditions: read-out: IC50 values (tumor cell survival)
HCA-7 cells = assay: Cell proliferation assay; assay type: cell-based; conditions: Homo sapiens, HCA-7, read-out: IC50 cell proliferation, HCA-7, Has2 −
Apc10.1 cells = assay: Cell proliferation assay; assay type: cell-based, mice; conditions: Mus musculus, read-out: IC50 cell proliferation, Apc10.1, Has2 −
HT29 cells = assay: Cell proliferation assay; assay type: cell-based; conditions: Homo sapiens, HT-29, read-out: IC50 cell proliferation, HT29, Has2 −
[3] = tested on: pre-neoplastic Apc10.1 cells; assay: MTT assay on pre-neoplastic Apc10.1 cells; assay type: cell-based; conditions: Apc10.1, 24 h

Which results are given for `CC1(C)Cc2c(-c3ccccc3)c(-c3ccc(Cl)cc3)c(CC(=O)O)n2C1` [Licofelone, [6-(4-chlorophenyl)-2,2-dimethyl-7-phenyl-2,3-dihydro-1H-pyrrolizin-5-yl]acetic acid]?
COX-2 and 5-LOX levels [1]: substantial inhibition; IC50 [2]: 45 to 75 µM; IC50 (HCA-7 cells): 48 ± 5.2 µM; IC50 (Apc10.1 cells): 45 ± 7.2 µM; IC50 (HT29 cells): 75 ± 8.3 µM

What does the source list for `CC(C)(C)C1=CC(=NNC(=O)c2ccccc2)C=C(C(C)(C)C)C1=O` [BQBH, N’- (3,5-di-tert-butyl-4-oxocyclohexa-2,5-dienylidene) benzohydrazide]?
COX-2 and 5-LOX levels [1]: substantial inhibition; IC50 [2]: 12 to 20 µM

For `CC(C)(C)C1=CC(=NNC(=O)c2cccnc2)C=C(C(C)(C)C)C1=O` [BQNH, N’- (3,5-di-tert-butyl-4-oxocyclohexa-2,5-dienylidene) nicotinohydrazide], which “COX-2 and 5-LOX levels” value [1] is on record?
The value was “substantial inhibition”.

And the IC50 [2]?
The IC50 was 6.5 to 11 µM.

And the “cytotoxic activity (MTT)” value [3]?
Its value is “reasonable cytotoxic activity”.

Which results are given for `CC(C)(C)C1=CC(=NNC(=O)c2ccncc2)C=C(C(C)(C)C)C1=O` [BQIH, N’- (3,5-di-tert-butyl-4-oxocyclohexa-2,5-dienylidene) isonicotinohydrazide]?
COX-2 and 5-LOX levels [1]: substantial inhibition; IC50 [2]: 12 to 20 µM

`Cc1ccc(-c2cc(C(F)(F)F)nn2-c2ccc(S(N)(=O)=O)cc2)cc1` [Celecoxib, reference compound] was tested. Which IC50 [2] did it give?
Its IC50 is 2 to 4.2 µM.

From article PMC3895464 (Bioorganic & medicinal chemistry, 2013)
